“Also recorded” adds a separate entry of the source.
Legend:
[1] = tested on: pS897-EphA2; assay: Immunoblot with polyclonal anti-pS897-EphA2, U373 cells; format: cell-based, human; details: for serum-induced pS897-EphA2 under FGFR inhibition: U373 cells pretreated with 10 μM SU5402 or 100 nM BU for 30 min, 10% FBS 10 min; for induction of pS897-EphA2: serum-starved U373 cells, 10 ng/ml growth factor, 10 min
Protocol: For stationary cells, sub-confluent cells were stimulated with 1 μg/ml ephrinA1-Fc for different times. To study the signaling events in migrating cells, the monolayer of freshly confluent cells was wounded by repeated scratch-wounding using a multichannel pipette. By doing so, the cells on the wound edges were induced to migrate. Four hours after wounding cells were stimulated with 1 μg/ml ephrinA1-Fc for different times. To look at the serum-induced signaling, cells were starved in serum-free medium overnight before stimulation or wounding. Both stationary and wounded cells were stimulated with 10% FBS in the presence of 1 μg/ml Fc or ephrinA1-Fc. Immunoprecipitation and immunoblot were performed as described previously (Nat. Cell Biol. 2, 62-69).

[2] = tested on: U373 cells; assay: Boyden chamber chemotactic cell migration assay; format: cell-based, human; details: 10 ng/ml growth factor or 10 μM LPA
Protocol: The chemotactic cell migration was carried out as described previously (J. Cell Biol. 162, 1281-1292). Briefly, both sides of the filter were coated with 10 μg/ml rat tail collagen type I at 4° C. overnight. 1×10^5 cells in serum-free medium containing 0.1% BSA were plated in the top of insert. EphrinA1-Fc or Fc was added to a final concentration of 1 μg/ml to the lower chamber together 5% FBS or various growth factors. Cells were allowed to migrate for 4 hours and then fixed with 4% paraformaldehyde. After staining with 0.5% crystal violet, cells that have passed through the filter and stayed on the undersides of inserts were counted.

In the case of COc1cc(OC)cc(-c2cc3cnc(N)nc3nc2NC(=O)NC(C)(C)C)c1 [BU, 1-(2-Amino-6-(3,5-dimethoxyphenyl)pyrido[2,3-d]pyrimidin-7-yl)-3-tert-butyl urea, reference compound], the “serum-induced pS897-EphA2 under FGFR inhibition” value [1] is reported as “not sufficient for inhibiting serum-induced pS897-EphA2”.
In the case of CCCCCCCCCCCCCCCCCCOC[C@H](COP(=O)(O)O[C@H]1[C@H](O)[C@@H](O)[C@H](O)C[C@H]1OC)OC [SH-5, reference compound], the “serum-induced pS897-EphA2 (S897 phosphorylation)” value ([1]; serum-starved U373 cells pretreated with 10 μM inhibitor (SH-5 30 min; LY294002 1 hour), FBS 10 min) is reported as “suppressed S897 phosphorylation; also recorded: abolishes serum-induced pS897-EphA2”.
Cc1c[nH]c(/C=C2\C(=O)Nc3ccccc32)c1CCC(=O)O [SU5402, reference compound] was tested, and the “serum-induced pS897-EphA2 under FGFR inhibition” value [1] was “not sufficient for inhibiting serum-induced pS897-EphA2”.
In the case of “EGF: growth factor implicated in development of human GBM (NSDSECPLSHDGYCLHDGVCMYIEALDKYACNCVVGYIGERCQYRDLKWWELR; UniProt P01133 971-1023, looked up)”, the “chemoattractant activity (chemotactic cell migration)” value (“chemoattractant activity” for short) [2] is reported as “potent chemoattractants” and the “induction of pS897-EphA2” value [1] is reported as “capable of inducing pS897-EphA2”.
“HGF: growth factor implicated in development of human GBM” was tested, and the “chemoattractant activity” value [2] was “potent chemoattractants” and the “induction of pS897-EphA2” value [1] was “capable of inducing pS897-EphA2”.
For PDGF, the “chemoattractant activity” value [2] was “potent chemoattractants” and the “induction of pS897-EphA2” value [1] was “capable of inducing pS897-EphA2”.
In the case of “bFGF: growth factor implicated in development of human GBM”, the “chemoattractant activity” value [2] is reported as “potent chemoattractants” and the “induction of pS897-EphA2” value [1] is reported as “capable of inducing pS897-EphA2”.
